Like-named read-outs stand apart in the source and are kept apart here. No end group written: not given here.
Key:
[1] = tested on: CRF receptor type 1; parameters: method as in PMID 17057757; conditions: blockade of UCN1; cited from earlier work
[2] = molecular target: T1, CRF1 receptor (hCRF1α) (Homo sapiens, UniProt P34998); assay: cAMP accumulation (LANCE) in Cos7 cells transfected with hCRF1α, agonist stimulation; assay type: cell-based; conditions: cAMP, CRF1 receptor, antagonist alone, n = 3
T1 construct: host or cells: Cos7 cells, transient transfection (PEI), pcDNA3.0/3.1 vector
T1 sequence (P34998 24-415): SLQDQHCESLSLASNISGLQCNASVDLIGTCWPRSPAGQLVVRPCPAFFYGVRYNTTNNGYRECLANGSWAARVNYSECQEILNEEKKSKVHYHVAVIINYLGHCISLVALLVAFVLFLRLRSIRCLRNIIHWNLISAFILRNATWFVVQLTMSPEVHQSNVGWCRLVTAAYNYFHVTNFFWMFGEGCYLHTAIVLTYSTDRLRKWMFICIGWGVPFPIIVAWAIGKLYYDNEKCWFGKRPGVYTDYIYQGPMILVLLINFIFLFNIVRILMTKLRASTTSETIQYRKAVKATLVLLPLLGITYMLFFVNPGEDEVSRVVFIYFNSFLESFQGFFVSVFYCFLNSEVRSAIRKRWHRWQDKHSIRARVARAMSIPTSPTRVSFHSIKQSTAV
Description: (§1) Plasmids containing hCRF1α and hCRF2α (GenBank accession numbers AY457172 and AY449734) were obtained from the cDNA Resource Centre (Bloomsburg University) and are referred to as CRF1 and CRF2 in this manuscript. Hemagglutinin (HA) epitope‐tagged human Calcitonin (CT) receptor (CT(a) splice variant) and myc‐tagged human RAMP1 were used as described previously. ^27 HA‐tagged human calcitonin receptor‐like receptor (CLR), N‐terminal FLAG‐tagged human RAMP3 and N‐terminal myc‐tagged human RAMP3 were a gift from Professor David Poyner (Aston University) and Professor Patrick Sexton (Monash University), respectively. N‐terminal FLAG‐tagged human RAMP2 was used as described previously. ^28 All receptors and RAMPs were cloned in pcDNA3.0 or pcDNA3.1 plasmid vectors. All plasmid inserts were sequenced at the Centre for Genomics, Proteomics and Metabolomics (University of Auckland) and the sequences were verified prior to use.
Cos7, HEK‐293S, and HEK‐293T cells were cultured as described previously. ^28 , ^29 Cos7 cells were originally supplied by the ATCC to Associate Professor Nigel Birch (University of Auckland). HEK‐293S cells were a gift from Professor David Poyner (Aston University) and HEK‐293T cells a gift from Professor John Taylor (University of Auckland). Briefly, all cell lines were cultured in Dulbecco's Modified Eagle Medium (DMEM) supplemented with 8% heat inactivated fetal bovine serum (FBS) and maintained in a humidified incubator at 37°C with 5% CO2. For transfection, cells were counted (Countess CounterTM; Life Technologies) and plated at a density of 20 000 cells per well in 96‐well plates. The cells were transiently transfected 48 hours prior to assaying using polyethylenimine (PEI), as described previously. ^28 , ^29 In all experiments a total of 0.25 μg DNA was transfected per well. In the majority of experiments 0.25 μg DNA of receptor‐containing plasmid or the pcDNA3.1 plasmid without an insert was used. For experiments involving RAMPs, 0.125 μg of receptor DNA and 0.125 μg of RAMP‐containing plasmid DNA were transfected to give a 1:1 ratio of receptor to RAMP. […]
cAMP accumulation in Cos7 cells transfected with hCRF1α or hCRF2α receptors was measured using the LANCE cAMP detection assay kit (PerkinElmer Life and Analytical Sciences) as described previously. ^30 Briefly, culture media was removed and replaced with DMEM containing 0.1% bovine albumin serum (BSA) and 1 mmol/L 3‐isobutyl‐1‐methylxanthine (IBMX) for 30 minutes at 37°C. […] Samples were shaken for 15 minutes before 5 µL cell lysate was transferred to a white 384‐well optiplate and processed for cAMP quantification as described previously. ^31 Samples were read using an Envision plate reader (PerkinElmer). cAMP concentrations were determined from a standard curve generated in duplicate. […]

[3] = molecular target: T2, CRF2 receptor (hCRF2α) (Homo sapiens, UniProt Q13324); assay: cAMP accumulation (LANCE) in Cos7 cells transfected with hCRF2α, agonist stimulation; assay type: cell-based; conditions: COS-7; cAMP, CRF2 receptor, antagonist alone; n = 3; read-out: E max (partial agonism of antagonist)
T2 construct: host or cells: Cos7 cells, transient transfection (PEI), pcDNA3.0/3.1 vector
T2 sequence (Q13324 1-411): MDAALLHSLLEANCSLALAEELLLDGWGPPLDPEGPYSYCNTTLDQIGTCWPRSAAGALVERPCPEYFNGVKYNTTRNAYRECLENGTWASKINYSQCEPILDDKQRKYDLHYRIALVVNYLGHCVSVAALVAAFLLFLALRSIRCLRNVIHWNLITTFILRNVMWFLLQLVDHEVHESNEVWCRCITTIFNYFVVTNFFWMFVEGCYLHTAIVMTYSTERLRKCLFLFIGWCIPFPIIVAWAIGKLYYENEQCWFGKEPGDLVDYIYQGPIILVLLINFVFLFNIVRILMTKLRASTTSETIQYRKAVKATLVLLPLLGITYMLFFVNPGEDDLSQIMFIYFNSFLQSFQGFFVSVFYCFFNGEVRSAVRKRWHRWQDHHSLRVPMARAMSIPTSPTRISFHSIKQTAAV
Description: as §1
(§2) Cos7, HEK‐293S, and HEK‐293T cells were cultured as described previously. ^28 , ^29 Cos7 cells were originally supplied by the ATCC to Associate Professor Nigel Birch (University of Auckland). HEK‐293S cells were a gift from Professor David Poyner (Aston University) and HEK‐293T cells a gift from Professor John Taylor (University of Auckland). Briefly, all cell lines were cultured in Dulbecco's Modified Eagle Medium (DMEM) supplemented with 8% heat inactivated fetal bovine serum (FBS) and maintained in a humidified incubator at 37°C with 5% CO2. For transfection, cells were counted (Countess CounterTM; Life Technologies) and plated at a density of 20 000 cells per well in 96‐well plates. The cells were transiently transfected 48 hours prior to assaying using polyethylenimine (PEI), as described previously. ^28 , ^29 In all experiments a total of 0.25 μg DNA was transfected per well. In the majority of experiments 0.25 μg DNA of receptor‐containing plasmid or the pcDNA3.1 plasmid without an insert was used. For experiments involving RAMPs, 0.125 μg of receptor DNA and 0.125 μg of RAMP‐containing plasmid DNA were transfected to give a 1:1 ratio of receptor to RAMP. Where the RAMP or receptor were transfected alone, the ratio of DNA was made up with the pcDNA3.1 plasmid.
(§3) cAMP accumulation in Cos7 cells transfected with hCRF1α or hCRF2α receptors was measured using the LANCE cAMP detection assay kit (PerkinElmer Life and Analytical Sciences) as described previously. ^30 Briefly, culture media was removed and replaced with DMEM containing 0.1% bovine albumin serum (BSA) and 1 mmol/L 3‐isobutyl‐1‐methylxanthine (IBMX) for 30 minutes at 37°C. Cells were incubated for an additional 15 minutes at 37°C with media or agonist concentrations of 1 pmol/L to 1 µmol/L for agonist only assays or 10 pmol/L to 10 µmol/L concentrations for antagonist experiments. Antagonists were added simultaneously or immediately prior to the addition of agonists. To stop cell stimulation and extract cAMP, the contents of the wells were replaced with 50 µL absolute ethanol. Samples were left at −20°C for a minimum of 10 minutes. The ethanol was evaporated and replaced with 50 µL of cAMP detection buffer. Samples were shaken for 15 minutes before 5 µL cell lysate was transferred to a white 384‐well optiplate and processed for cAMP quantification as described previously. ^31 Samples were read using an Envision plate reader (PerkinElmer). cAMP concentrations were determined from a standard curve generated in duplicate.
(§4) In all experiments the position of peptides and antagonists (pharmacology) or transfected receptors (ELISAs) on assay plates was randomized during each independent experiment, which are independent biological replicates. In all cases, duplicate, triplicate, or quadruplicate technical replicates were conducted for each independent experiment.

[4] = molecular target: T1, CRF1 receptor (hCRF1α); assay: Antagonism of agonist-mediated cAMP accumulation in Cos7 cells expressing CRF1 receptors; assay type: cell-based; conditions: for Kb: hCRF1α, global Schild analysis, mean ± SEM, read-out: antagonist potency (pKB) (converted)
[5] = molecular target: T2, CRF2 receptor (hCRF2α); assay: Antagonism of agonist-mediated cAMP accumulation in Cos7 cells expressing CRF2 receptors; assay type: cell-based; conditions: for Kb: hCRF2α, global Schild analysis, mean ± SEM, n = 5, read-out: antagonist potency (pKB) (converted)
Description: as §1, §2, §3, §4

[6] = tested on: CRF2 receptor; conditions: cited from earlier work

Q: Which “mode of antagonism of Gαi activity” value [1] does the source give for `CCCCN(CC)c1nc(C)nc2c1c(C)c(C)n2-c1c(C)cc(C)cc1C` [antalarmin] here?
A: non‐competitive antagonist of Gαi activity

Q: And the “mode of antagonism of Gαs activity” value [1]?
A: competitive antagonist of Gαs

Q: For `CCCC[C@H](NC(=O)[C@H](CCCCN)NC(=O)[C@H](CCCNC(=N)N)NC(=O)[C@H](CC(C)C)NC(=O)[C@](C)(CC(C)C)NC(=O)[C@H](Cc1c[nH]cn1)NC(=O)[C@@H](Cc1ccccc1)NC(=O)[C@H](CO)NC(=O)[C@H](CC(C)C)NC(=O)[C@H](CC(=O)O)NC(C)=O)C(=O)N[C@H](C(=O)N[C@@H](CCC(=O)O)C(=O)N[C@H](C(=O)N[C@@H](CCC(=O)O)C(=O)N[C@@H](CCCCN)C(=O)N[C@@H](CCC(N)=O)C(=O)N[C@@H](CCC(=O)O)C(=O)N[C@@H](CCCCN)C(=O)N[C@@H](CCC(=O)O)C(=O)N[C@@H](CCCCN)C(=O)N[C@@H](CCC(N)=O)C(=O)N[C@@H](CCC(N)=O)C(=O)N[C@@H](C)C(=O)N[C@H]1CCC(=O)NCCCC[C@@H](C(=O)N[C@@H](CC(C)C)C(=O)N[C@@H](CC(C)C)C(=O)N[C@@H](CC(C)C)C(=O)N[C@@H](CC(=O)O)C(=O)N[C@@](C)(CC(C)C)C(=O)N[C@H](C(N)=O)[C@@H](C)CC)NC(=O)[C@H](CC(N)=O)NC(=O)[C@H](CC(N)=O)NC1=O)[C@@H](C)CC)[C@@H](C)CC` [astressin2B], which partial agonism [2] is on record?
A: this was not the case at the CRF1 receptor

Q: What about the Emax [3] of the same molecule?
A: 11%

Q: And the Kb ([4]; agonist CRF, cAMP, n = 5)?
A: 479 nM

Q: What about the Kb ([4]; agonist UCN1, cAMP, n = 5 (CP‐376,395), n = 3 (astressin2B)) of the same molecule?
A: > 5010 nM

Q: And the “antagonism of UCN1‐mediated cAMP signaling” value ([4]; up to 5 μmol/L, CRF1 receptor)?
A: did not measurably antagonize

Q: And the “potency against CRF‐mediated relative to UCN1‐mediated cAMP signaling” value ([5]; CRF2 receptor)?
A: approximately 10 fold

Q: What about the Kb ([5]; agonist CRF, cAMP) of the same molecule?
A: 0.302 nM

Q: What about the Kb ([5]; agonist UCN1, cAMP) of the same molecule?
A: 3.63 nM

Q: What about the “potency at CRF2 receptor compared to CRF1 receptor” value ([5]; antagonism of either CRF or UCN1‐induced cAMP signaling) of the same molecule?
A: at least 1000 fold

Q: What about the selectivity [6] of the same molecule?
A: selective antagonist of the CRF2 receptor

Q: Which Emax ([2]; COS-7, read-out: E max (partial agonism of antagonist)) does the source give for “DLTFHLLREMLEMAKAEQEAEQAALNRLLLEEA-NH2 [α‐helical CRF(9‐41)] [listing 1 of 2 here]” here?
A: 14.8%

Q: Which results are given for “DLTFHLLREMLEMAKAEQEAEQAALNRLLLEEA-NH2 [α‐helical CRF(9‐41)] [listing 2 of 2 here]”?
A: Kb ([4]; agonist CRF, cAMP, n = 5): 170 nM; Kb ([5]; agonist CRF, cAMP): 18.6 nM

Source: paper PMC7290078, “Agonist bias and agonist‐dependent antagonism at corticotrophin releasing factor receptors” (Pharmacology Research & Perspectives, 2020)
